Laboratory results from US8618137B2 (priority 2008, dated 2013).
Where two headings read alike, the source gives them in different places. Marks after values point to notes of the source that are not given here.

Assays:
Type in all cases: in vivo
[1] = tested on: Phytophthora infestans (the causal agent of tomato late blight); conditions: sprayed the day before inoculation, 100 = 100% disease control, 0 = no control
[2] = tested on: Phytophthora infestans (the causal agent of tomato late blight); conditions: sprayed 17 h after inoculation, 100 = 100% disease control, 0 = no control
[3] = tested on: Plasmopara viticola (the causal agent of grape downy mildew); assay: Test A: grape downy mildew, grape seedlings inoculated then sprayed with test suspension, visual disease rating; conditions: 100 = 100% disease control, 0 = no control relative to controls
Description: General protocol for preparing test suspensions for Tests A-B2: The test compounds were first dissolved in acetone in an amount equal to 3% of the final volume and then suspended at the desired concentration (in ppm) in acetone and purified water (50/50 mix by volume) containing 250 ppm of the surfactant Trem® 014 (polyhydric alcohol esters). The resulting test suspensions were then used in Tests A-B2. Spraying a 200 ppm test suspension to the point of run-off on the test plants was the equivalent of a rate of 800 g/ha.
Grape seedlings were inoculated with a spore suspension of Plasmopara viticola (the causal agent of grape downy mildew) and incubated in a saturated atmosphere at 20° C. for 24 h. After a short drying period, the grape seedlings were sprayed with the test suspension to the point of run-off, then moved to a growth chamber at 20° C. for 5 days, and then back into a saturated atmosphere at 20° C. for 24 h. Upon removal, visual disease ratings were made.
Results for Tests A-B2 are given in Table A. In the Table, a rating of 100 indicates 100% disease control and a rating of 0 indicates no disease control (relative to the controls). All results are for 10 ppm except where followed by an “*” which indicates 40 ppm and “**” which indicates 200 ppm.

Row | SMILES | Test B1 rating (disease control) ([1]; test suspension 200 ppm (**)) | Test B2 rating (disease control) ([2]; test suspension 200 ppm (**)) | Test A rating (disease control) ([3]; test suspension 200 ppm (**)) | Test B1 rating (disease control) ([1]; test suspension 10 ppm) | Test B1 rating (disease control) ([1]; test suspension 40 ppm (*)) | Test B2 rating (disease control) ([2]; test suspension 10 ppm) | Test B2 rating (disease control) ([2]; test suspension 40 ppm (*)) | Test A rating (disease control) ([3]; test suspension 10 ppm) | Test A rating (disease control) ([3]; test suspension 40 ppm (*))
1 | CN(CC(=O)N1CCC(c2nc(C3=NOC(c4c(F)cccc4F)C3)cs2)CC1)NC(=O)C(F)(F)F (stereo not drawn) [Compound 36, 2,2,2-trifluoroacetic acid 2-[2-[4-[5-(2,6-difluorophenyl)-4,5-dihydro-3-isoxazolyl]-2-thiazolyl-1-piperidinyl]-2-oxoethyl]-2-methylhydrazide] | 100** % | 93** % | 60** % | – | – | – | – | – | –
2 | O=C(CONC(=O)C(F)(F)F)N1CCC(c2nc(C3=NOC(c4c(F)cccc4F)C3)cs2)CC1 (stereo not drawn) [Compound 38] | – | – | – | 90% | 100* % | 90% | 99* % | 98% | 99* %
3 | CC1=NN(CC(=O)N2CCC(c3nc(C4=NOC(c5c(F)cccc5F)C4)cs3)CC2)C(C)C1 (stereo not drawn) [Compound 40, 1-[4-[4-[5-(2,6-difluorophenyl)-4,5-dihydro-3-isoxazolyl]-2-thiazolyl]-1-piperidinyl]-2-(4,5-dihydro-3,5-dimethyl-1H-pyrazol-1-yl]ethanone] | – | – | – | – | 100* % | – | 99* % | – | 97* %
4 | CC(C)=NOCC(=O)N1CCC(c2nc(C3=NOC4(CCc5ccccc54)C3)cs2)CC1 (stereo not drawn) [compound 13] | – | – | – | 99% | – | 99% | – | 99% | –
5 | CC(C)=NOCC(=O)N1CCC(c2nc(C(=O)N(C)[C@H](C)c3ccccc3)cs2)CC1 [compound 15] | – | – | – | – | 39* % | – | 91* % | – | 99* %
6 | O=C(CON=CC(F)(F)F)N1CCC(c2nc(C3=NOC4(CCc5ccccc54)C3)cs2)CC1 (stereo not drawn) [compound 29] | – | – | – | 100% | – | 99% | – | 100% | –
7 | CC(C)=NOCC(=O)N1CCC(c2nc(C3=NOC(c4ccccc4C#N)C3)cs2)CC1 (stereo not drawn) [compound 41] | – | – | – | 100% | – | 99% | – | 100% | –
8 | CC(=NOCC(=O)N1CCC(c2nc(C3=NOC(c4ccccc4C#N)C3)cs2)CC1)C(F)(F)F (stereo not drawn) [compound 42] | – | – | – | 100% | – | 99% | – | 100% | –
9 | CC(=NOCC(=O)N1CCC(c2nc(C3=NOC(n4c(=O)oc5ccccc54)C3)cs2)CC1)C(F)(F)F (stereo not drawn) [compound 43] | – | – | – | 100% | – | 99% | – | 100% | –
10 | CC(=NOCC(=O)N1CCC(c2nc(C3=NOC(N4C(=O)c5ccccc5C4=O)C3)cs2)CC1)C(F)(F)F (stereo not drawn) [compound 44] | – | – | – | 100% | – | 99% | – | 100% | –
11 | CC(C)=NOCC(=O)N1CCC(c2nc(C3=NOC(N4C(=O)c5ccccc5C4=O)C3)cs2)CC1 (stereo not drawn) [compound 45] | – | – | – | 95% | – | 99% | – | 96% | –
12 | CC1=NN(CC(=O)N2CCC(c3nc(C4=NOC(c5c(F)cccc5F)C4)cs3)CC2)C(C)(C)C1 (stereo not drawn) [compound 46] | – | – | – | – | 90* % | – | 81* % | – | 9* %
13 | CN1C(=O)c2ccccc2C12CC(c1csc(C3CCN(C(=O)CON=CC(F)(F)F)CC3)n1)=NO2 (stereo not drawn) [compound 47] | – | – | – | 100% | – | 99% | – | 100% | –
14 | Cn1c(=O)n(C2CC(c3csc(C4CCN(C(=O)CON=CC(F)(F)F)CC4)n3)=NO2)c2ccccc21 (stereo not drawn) [compound 48] | – | – | – | 100% | – | 99% | – | 100% | –
15 | CC(=NOCC(=O)N1CCC(c2nc(C3=NOC(n4c(=O)n(C)c5ccccc54)C3)cs2)CC1)C(F)(F)F (stereo not drawn) [compound 49] | – | – | – | 100% | – | 99% | – | 100% | –
16 | CC(=NOCC(=O)N1CCC(c2nc(C3=NOC4(C3)c3ccccc3C(=O)N4C)cs2)CC1)C(F)(F)F (stereo not drawn) [compound 50] | – | – | – | 100% | – | 99% | – | 100% | –
17 | N#CC(C#N)=NOCC(=O)N1CCC(c2nc(C3=NOC(c4c(F)cccc4F)C3)cs2)CC1 (stereo not drawn) [compound 51] | – | – | – | 100% | – | 99% | – | 99% | –
